In article PMC6864781, “Synthesis, Antitumor Activity, and Docking Analysis of New Pyrido[3′,2′:4,5]furo(thieno)[3,2-d]pyrimidin-8-amines” (Molecules, 2019):
Converted amounts (≈) assume the structure as drawn. “Also recorded” adds a separate entry of the source.

Assays:
Format in all cases: cell-based
[1] = tested on: DNA of tumor sarcoma 180 (S-180); assay: Influence on methylation of DNA of tumor sarcoma 180 in vitro (5-MC content); conditions: 3 × 10^−6 M compound, 24 h at 37 °C; for inhibition at 3 µM: reduction of 5-MC content vs S-180 control, read-out: Inhibition of the Level of DNA Methylation; for Content of Bases in DNA, 5-MC ± ζ: tumor homogenate, S-180 control 0.64 ± 0.02, seven determinations; for Effect on tumor DNA methylation (in words): S-180
Method: It is known that DNA methylation in cancer plays a variety of roles, helping to change the healthy regulation of gene expression to a disease pattern. DNA hypermethylation in neoplasia is a specific epigenetic sign that can guide the diagnosis and treatment of this disease. We studied the effect of synthesized substances on tumor DNA in vitro. After the incubation of tumor cells with the studied compounds, the isolated DNA was hydrolyzed to nitrogen bases. In the studied DNA, the nucleotide composition (guanine (G), cytosine (C), 5-methylcitosine (5-MC), adenine (A), thymine (T)) complied with the rules of Chargaff. Isolated DNA belonged to the AT type, and the amount of basic bases (G + C + 5-MC) within them was 42.24–44.64 mol %, which is typical for eukaryotic DNA. Almost the same content of basic bases (G, C, A, and T) was observed, while a clear difference between DNA samples was found only in relation to the content of 5-MC, which indicated the demethylating ability of the compounds.
The influence of synthesized compounds on the methylation of DNA of tumor sarcoma 180 (S-180) was studied in vitro. Transplanted S-180 was isolated from animals after slaughter by decapitation under ether narcosis. A 3 × 10^−6 M solution of compounds (solvent: carboxymethylcellulose) was added to the tumor homogenate (12.5 mL of a solution per 10 g of tumor), and the mixture was incubated for 24 h at 37 °C. After the incubation, tumor DNA was extracted using the phenol–chloroform method. Hydrolysis to the nitrogen bases was carried out in sealed glass ampoules in 85% formic acid at 176 °C for 1 h (0.1 mL of acid per 1 mg of DNA). The separation of nitrogen bases (guanine (G), cytosine (C), 5-methylcitosine (5-MC), adenine (A), and thymine (T)) was produced by thin-layer chromatography in the solvent n-butanol/water/ammonia. Spectrophotometry of the eluates of all bases was made against eluates from the respective control areas of the chromatograms. In our studies, the well-known antitumor drug doxorubicin (manufactured by EBEWE Pharma Ges.m.b.H. Nfg. KG, 4866 Unterach, Austria) was used as a standard preparation. The data were statistically processed using Student’s and Fischer’s tests (p < 0.05).

HeLa cells = assay: Cell viability (MTT) assay, HeLa; conditions: Homo sapiens, 72 h, read-out: IC50, antiproliferative activity
Method: (§1) Vero and HeLa cells were seeded in a 96-well culture plate at a density of 20,000 cells/well. The plates were preincubated in a 5% CO2/95% air-humidified atmosphere at 37 °C for 24 h to allow for adaptation of the cells prior to the addition of the test compounds. All compounds were dissolved in dimethyl sulfoxide (DMSO) prior to dilution (1 mg/mL stock solution). The 50% inhibitory concentration (IC50) was determined over a range of concentrations (0.5 μg/mL to 10 μg/mL). All cells were incubated for 72 h, and then cell viability was estimated using an MTT (3-(4,5-dimethylthiazol-2-yl)-2,5-diphenyltetrazolium bromide) assay, as previously described. Colorimetric measurements were performed on a microplate reader at 570 nm (Tecan Spectra II, Switzerland). The percentage of viable cells was calculated for each concentration as ((ODT/ODC) × 100), where ODT and ODC corresponded to the absorbance of the treated and control cells, respectively. The IC50 was calculated by using linear regression analysis.

Vero cells = assay: Cell viability (MTT) assay, Vero; conditions: Chlorocebus sabaeus, Vero (normal cells), 72 h, read-out: IC50, antiproliferative activity
Method: as §1

SMILES	inhibition at 3 µM [1]	Content of Bases in DNA, 5-MC ± ζ [1]	IC50 (HeLa cells)	IC50 (Vero cells)	Effect on tumor DNA methylation (in words) [1]
CCOC(=O)N1CCN(c2ncnc3c2sc2nc(C(C)C)c4c(c23)CC(C)(C)OC4)CC1 [Compound 7l, Ethyl 4-(5-isopropyl-2,2-dimethyl-1,4-dihydro-2H-pyrano[4″,3″:4′,5′]pyrido[3′,2′:4,5]thieno[3,2-d]pyrimidin-8-yl)piperazine-1-carboxylate]	29.7%	0.45 ± 0.03 mol %			
c1coc(-c2nc3sc4c(N5CCCCC5)ncnc4c3c3c2CCCC3)c1 [Compound 5a, 5-(2-Furyl)-8-piperidin-1-yl-1,2,3,4-tetrahydropyrimido[4′,5′:4,5]thieno[2,3-c]isoquinoline]	40.6%	0.38 ± 0.02 mol %			
COc1ccc(CCNc2ncnc3c2oc2nc(C(C)C)c4c(c23)CC(C)(C)OC4)cc1OC [Compound 7e, N-[2-(3,4-Dimethoxyphenyl)ethyl]-5-isopropyl-2,2-dimethyl-1,4-dihydro-2H-pyrano[4″,3″:4′,5′]pyrido[3′,2′:4,5]furo[3,2-d]pyrimidin-8-amine]	56.2%	0.28 ± 0.01 mol %			
CC(C)c1nc2oc3c(NCc4cccnc4)ncnc3c2c2c1COC(C)(C)C2 [Compound 7h]	34.4%	0.42 ± 0.02 mol %			
CC(C)Cc1nc2oc3c(NCCCO)ncnc3c2c2c1COC(C)(C)C2 [Compound 7k]	18.8%	0.52 ± 0.01 mol %			
COc1cccc2c1C(=O)c1c(O)c3c(c(O)c1C2=O)C[C@@](O)(C(=O)CO)C[C@@H]3O[C@H]1C[C@H](N)[C@H](O)[C@H](C)O1 [Doxorubicin, doxorubicin, reference compound]	67.2%	0.21 ± 0.01 mol %			
CC1CCN(c2ncnc3c2sc2nc(-c4ccco4)c4c(c23)CCCC4)CC1 [Compound 5b, 5-(2-Furyl)-8-(4-methylpiperidin-1-yl)-1,2,3,4-tetrahydropyrimido[4′,5′:4,5]thieno[2,3-c]isoquinoline]	60.9%	0.25 ± 0.02 mol %	8.4 ± 0.2 µg/mL (≈ 20.8 µM)	16.8 ± 0.6 µg/mL (≈ 41.5 µM)	
CC(C)c1nc2oc3c(NCc4ccco4)ncnc3c2c2c1COC(C)(C)C2 [Compound 7g, N-(2-Furylmethyl)-5-isopropyl-2,2-dimethyl-1,4-dihydro-2H-pyrano[4″,3″:4′,5′]pyrido[3′,2′:4,5]furo[3,2-d]pyrimidin-8-amine]	40.6%	0.38 ± 0.02 mol %			
CC(C)Cc1nc2oc3c(NCCO)ncnc3c2c2c1COC(C)(C)C2 [Compound 7j, 2-[(5-Isobutyl-2,2-dimethyl-1,4-dihydro-2H-pyrano[4″,3″:4′,5′]pyrido[3′,2′:4,5]furo[3,2-d]pyrimidin-8-yl)amino]ethanol]					did not affect DNA methylation; also recorded: no activity
c1coc(-c2nc3sc4c(N5CCOCC5)ncnc4c3c3c2CCCC3)c1 [Compound 5c, 5-(2-Furyl)-8-morpholin-4-yl-1,2,3,4-tetrahydropyrimido[4′,5′:4,5]thieno[2,3-c]isoquinoline]	23%	0.49 ± 0.02 mol %			
CC(C)c1nc2oc3c(NCCCN(C)C)ncnc3c2c2c1COC(C)(C)C2 [Compound 7i]					did not affect DNA methylation; also recorded: loss of activity
CCN(CC)CCNc1ncnc2c1oc1nc(C(C)C)c3c(c12)CC(C)(C)OC3 [Compound 7c, N,N-Diethyl-N′-(5-isopropyl-2,2-dimethyl-1,4-dihydro-2H-pyrano[4″,3″:4′,5′]pyrido[3′,2′:4,5]furo[3,2-d]pyrimidin-8-yl)ethane-1,2-diamine]	42.2%	0.37 ± 0.01 mol %			
CC(C)c1nc2oc3c(NCCN(C)C)ncnc3c2c2c1COC(C)(C)C2 [Compound 7b]	62.5%	0.24 ± 0.01 mol %	5.4 ± 0.2 µg/mL (≈ 14.1 µM)	13.7 ± 0.4 µg/mL (≈ 35.7 µM)	
CC(C)c1nc2oc3c(NCC4CCCO4)ncnc3c2c2c1COC(C)(C)C2 (stereo not shown) [Compound 7f, 5-Isopropyl-2,2-dimethyl-N-(tetrahydrofuran-2-ylmethyl)-1,4-dihydro-2H-pyrano[4″,3″:4′,5′]pyrido[3′,2′:4,5]furo[3,2-d]pyrimidin-8-amine]	21.9%	0.50 ± 0.02 mol %			
CC(C)c1nc2oc3c(NCCN4CCOCC4)ncnc3c2c2c1COC(C)(C)C2 [Compound 7d]	48.4%	0.33 ± 0.01 mol %			
CC(C)CNc1ncnc2c1sc1nc(-c3ccco3)c3c(c12)CCCC3 [Compound 5d, 5-(2-Furyl)-N-isobutyl-1,2,3,4-tetrahydropyrimido[4′,5′:4,5]thieno[2,3-c]isoquinolin-8-amine]	34.4%	0.42 ± 0.03 mol %			
CCN(CC)CCNc1ncnc2c1sc1nc(-c3ccco3)c3c(c12)CCCC3 [Compound 5e, N,N-Diethyl-N′-[5-(2-furyl)-1,2,3,4-tetrahydropyrimido[4′,5′:4,5]thieno[2,3-c]isoquinolin-8-yl]ethane-1,2-diamine]	28.1%	0.46 ± 0.02 mol %			
CC(C)c1nc2sc3c(NCC4CCCO4)ncnc3c2c2c1COC(C)(C)C2 (stereo not shown) [Compound 7m, 5-Isopropyl-2,2-dimethyl-N-(tetrahydrofuran-2-ylmethyl)-1,4-dihydro-2H-pyrano[4″,3″:4′,5′]pyrido[3′,2′:4,5]thieno[3,2-d]pyrimidin-8-amine]	37.5%	0.40 ± 0.02 mol %			
CC(C)c1nc2oc3c(NCCO)ncnc3c2c2c1COC(C)(C)C2 [Compound 7a]		0.85 ± 0.03 mol %			
c1coc(-c2nc3sc4c(NCC5CCCO5)ncnc4c3c3c2CCCC3)c1 (stereo not shown) [Compound 5f, 5-(2-Furyl)-N-(tetrahydrofuran-2-ylmethyl)-1,2,3,4-tetrahydropyrimido[4′,5′:4,5]thieno[2,3-c]isoquinolin-8-amine]	89.1%	0.07 ± 0.02 mol %	4.4 ± 0.3 µg/mL (≈ 10.8 µM)	6.4 ± 0.4 µg/mL (≈ 15.7 µM)	
